These compounds were tested against human-KAT6A (MYST domain 507-778 aa) (Homo sapiens (Human), UniProt Q92794) (assay: KAT6A biochemical assay (TR-FRET)). Conditions: @ 10 μM; reported where IC50 could not be determined; read-out: Percent inhibition at specific concentration (KAT6A).
Source text: TR-FRET based methods were used for assaying compounds of the present invention for KAT6A enzyme inhibitory activity. TR-FRET is a homogeneous proximity assay where Europium-labelled anti-acetyl lysine antibody binds to the acetylated substrate labelled with biotin, which in turn binds to streptavidin-labelled APC fluorescence acceptor. Europium can transfer energy to APC in the complex and the interaction of two dye-labelled binding partners is detected by the energy transfer between a donor and an acceptor dye and the subsequent light emission by the acceptor dye. KAT6A transfer an acetyl group from acetyl CoA to lysine amino acids of histones/target proteins. […] The selected compound of the present invention and enzyme are incubated for 30 min on plate shaker at 300 rpm at 25° C. Next, 5 μL of substrate mix containing histone H4 peptide and acetyl-CoA in assay buffer is added to the plate. The final concentrations of H4 peptide and acetyl-CoA are 200 nM and 600 nM, respectively. Following 60 min reaction at 25° C. on plate shaker at 300 rpm, 5 μL of detection mix containing Europium-labelled anti-acetyl antibody and streptavidin-APC is added to the reaction wells. The plate is further incubated at 25° C. on shaker at 300 rpm and is read in TR-FRET mode (Ex:340 nm; Em: 615 nm and 665 nm) on a plate reader to achieve ˜5-7-fold activity. The percent inhibition was calculated from the ratio of the fluorescence (FL) intensities [(F665/F615)×10000) using the formula […]. IC50 values of the compounds were determined by fitting the dose-response data to sigmoidal curve fitting equation using Graph pad prism software V9.

Sequence of human-KAT6A (MYST domain 507-778 aa) (Q92794 507-778): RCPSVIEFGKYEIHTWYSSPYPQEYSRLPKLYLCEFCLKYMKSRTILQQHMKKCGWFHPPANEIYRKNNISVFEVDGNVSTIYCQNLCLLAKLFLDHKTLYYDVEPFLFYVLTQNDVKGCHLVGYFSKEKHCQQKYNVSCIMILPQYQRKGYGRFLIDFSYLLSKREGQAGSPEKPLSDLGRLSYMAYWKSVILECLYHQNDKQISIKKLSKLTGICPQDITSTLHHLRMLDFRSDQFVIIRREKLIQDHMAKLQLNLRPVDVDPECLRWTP

First: COc1cc(Cn2cccn2)cc(C(=O)NS(=O)(=O)c2c(OC)cccc2OC)c1 [Compound 6, 3-((1H-pyrazol-1-yl)methyl)-N-((2,6-dimethoxyphenyl)sulfonyl)-5-methoxybenzamide]
Second: COc1ccc(Cn2cccn2)cc1C(=O)NS(=O)(=O)c1cc(C(C)(C)C)ccc1OC [Compound 9, 5-((1H-pyrazol-1-yl)methyl)-N-((5-(tert-butyl)-2-methoxyphenyl)sulfonyl)-2-methoxybenzamide]
The inhibition at 10 µM of the first is higher: 26% for the first, 13% for the second.

Same assay, conditions: KAT6A IC50 (nM), TR-FRET; histone H4 peptide 200 nM, acetyl-CoA 600 nM

`COc1cc(C(=O)NS(=O)(=O)c2c(OC)cccc2OC)ccc1Cn1cccn1` [Compound 14, 4-((1H-pyrazol-1-yl)methyl)-N-((2,6-dimethoxyphenyl)sulfonyl)-3-methoxybenzamide] gave an IC50 of 7 nM.

Same assay, conditions: TR-FRET; histone H4 peptide 200 nM, acetyl-CoA 600 nM; read-out: KAT6A IC50

Going from “5-((1H-pyrazol-1-yl)methyl)-N-((5-(tert-butyl)-2-methoxyphenyl)sulfonyl)-4-methoxypyrimidine-2-carboxamide [Compound 264]” to `CCOc1cccc(OC)c1S(=N)(=O)NC(=O)c1ccc(Cn2cccn2)c(OC)n1` (racemic) [Compound 294, 5-((1H-pyrazol-1-yl)methyl)-N-(2-ethoxy-6-methoxyphenylsulfonimidoyl)-6-methoxypicolinamide], the IC50 rises from 12 nM to 35 nM (2.9-fold).

Compared with `COc1ccc(C(C)(C)O)cc1S(=N)(=O)NC(=O)c1ccc(Cn2cccn2)c(OC)n1` (racemic) [Compound 297, 5-((1H-pyrazol-1-yl)methyl)-N-(5-(2-hydroxypropan-2-yl)-2-methoxyphenylsulfonimidoyl)-6-methoxypicolinamide], `COc1cc(OC)c(S(=N)(=O)NC(=O)c2ccc(Cn3cccn3)c(OC)c2)c(OC)c1` (racemic) [Compound 299, 4-((1H-pyrazol-1-yl)methyl)-3-methoxy-N-(2,4,6-trimethoxyphenylsulfonimidoyl)benzamide] is 1.6-fold lower in IC50: 39 nM for the first, 25 nM for the second.

`COc1cccc(OC)c1S(=N)(=O)NC(=O)c1ccc(Cn2cccn2)c(OC)n1` (single isomer, unassigned) [Compound 243a] showed an IC50 of 17 nM.
Compared with `COc1cccc(OC)c1S(=N)(=O)NC(=O)c1ccc(Cn2cccn2)c(OC)n1` (single isomer, unassigned) [Compound 243b], `COc1cc(Cn2cccn2)ccc1C(=O)NS(=O)(=O)c1c(OC)cccc1OC` [Compound 1, 4-((1H-pyrazol-1-yl)methyl)-N-((2,6-dimethoxyphenyl)sulfonyl)-2-methoxybenzamide] is 3-fold higher in IC50: 82 nM for the first, 247 nM for the second.

Going from `COc1cc(Cn2cccn2)ccc1C(=O)NS(=O)(=O)c1ccccc1OC` [Compound 2, 4-((1H-pyrazol-1-yl)methyl)-2-methoxy-N-((2-methoxyphenyl)sulfonyl)benzamide] to `CCc1ccc(OC)c(S(=O)(=O)NC(=O)c2ccc(Cn3cccn3)cc2OC)c1` [Compound 3, 4-((1H-pyrazol-1-yl)methyl)-N-((5-ethyl-2-methoxyphenyl)sulfonyl)-2-methoxybenzamide], the IC50 falls from 741 nM to 137 nM (5.4-fold).

Going from `COc1cc(Cn2cccn2)ccc1C(=O)NS(=O)(=O)c1cc(C(C)(C)C)ccc1OC` [Compound 4] to `COc1cc(Cn2cccn2)ccc1C(=O)NS(=O)(=O)c1cc2c(cc1OC)CCC2` [Compound 5, 4-((1H-pyrazol-1-yl)methyl)-2-methoxy-N-((6-methoxy-2,3-dihydro-1H-inden-5-yl)sulfonyl)benzamide], the IC50 rises from 82 nM to 178 nM (2.2-fold). The first is the more potent here.

Going from `COc1ccc(C(C)(C)C)cc1S(=O)(=O)NC(=O)c1ccc(Cn2cccn2)cc1F` [Compound 7, 4-((1H-pyrazol-1-yl)methyl)-N-((5-(tert-butyl)-2-methoxyphenyl)sulfonyl)-2-fluorobenzamide] to `COc1cc(C(=O)NS(=O)(=O)c2ccc(C(C)(C)C)cc2OC)ccc1Cn1cccn1` [Compound 8, 4-((1H-pyrazol-1-yl)methyl)-N-((4-(tert-butyl)-2-methoxyphenyl)sulfonyl)-3-methoxybenzamide], the IC50 falls from 99 nM to 17 nM (5.8-fold).

Compared with `COc1cc(Cn2cccn2)ccc1C(=O)NS(=O)(=O)c1ccc(-n2cccn2)cc1OC` [Compound 10, 4-((1H-pyrazol-1-yl)methyl)-2-methoxy-N-((2-methoxy-4-(1H-pyrazol-1-yl)phenyl)sulfonyl)benzamide], `COc1cc(Cn2cccn2)ccc1C(=O)NS(=O)(=O)c1ccc(C(C)(C)C)cc1OC` [Compound 11, 4-((1H-pyrazol-1-yl)methyl)-N-((4-(tert-butyl)-2-methoxyphenyl)sulfonyl)-2-methoxybenzamide] is 3-fold lower in IC50: 1480 nM for the first, 500 nM for the second.

`COc1cccc(OC)c1S(=O)(=O)NC(=O)c1ccc(Cn2cccn2)c(F)c1` [Compound 12, 4-((1H-pyrazol-1-yl)methyl)-N-((2,6-dimethoxyphenyl)sulfonyl)-3-fluorobenzamide] and `COc1ccc(C(C)(C)C)cc1S(=O)(=O)NC(=O)c1ccc(Cn2cccn2)c(F)c1` [Compound 13, 4-((1H-pyrazol-1-yl)methyl)-N-((5-(tert-butyl)-2-methoxyphenyl)sulfonyl)-3-fluorobenzamide] are within 1.5-fold of each other in IC50: 48 nM for the first, 47 nM for the second.

Going from `COc1cc(C(=O)NS(=O)(=O)c2c(OC)cccc2OC)ccc1Cn1cccn1` [Compound 14, 4-((1H-pyrazol-1-yl)methyl)-N-((2,6-dimethoxyphenyl)sulfonyl)-3-methoxybenzamide] to `COc1cc(Cn2cccn2)ccc1C(=O)NS(=O)(=O)c1cc2c(cc1OC)CCCC2` [Compound 15, 4-((1H-pyrazol-1-yl)methyl)-2-methoxy-N-((3-methoxy-5,6,7,8-tetrahydronaphthalen-2-yl)sulfonyl)benzamide], the IC50 rises from 32 nM to 576 nM (18-fold). The first is the more potent here.

`COc1ccc(C(C)(C)C)cc1S(=O)(=O)NC(=O)c1ccc(Cn2cccn2)c(Br)c1` [Compound 16, 4-((1H-pyrazol-1-yl)methyl)-3-bromo-N-((5-(tert-butyl)-2-methoxyphenyl)sulfonyl)benzamide] and `COc1ccc(C(C)(C)C)cc1S(=O)(=O)NC(=O)c1ccc(Cn2cccn2)c(C2CC2)c1` [Compound 17, 4-((1H-pyrazol-1-yl)methyl)-N-((5-(tert-butyl)-2-methoxyphenyl)sulfonyl)-3-cyclopropylbenzamide] are within 1.5-fold of each other in IC50: 26 nM for the first, 20 nM for the second.

First: COc1ccc(C(C)(C)C)cc1S(=O)(=O)NC(=O)c1ccc(Cn2cccn2)c(C#N)c1 [Compound 18]
Second: COc1cc(C(=O)NS(=O)(=O)c2cc(-n3cccn3)ccc2OC)ccc1Cn1cccn1 [Compound 19, 4-((1H-pyrazol-1-yl)methyl)-3-methoxy-N-((2-methoxy-5-(1H-pyrazol-1-yl)phenyl)sulfonyl)benzamide]
The IC50 of the first is 1.7-fold higher: 70 nM for the first, 42 nM for the second. The second is the more potent here.

`COc1ccc(C(C)(C)C)cc1S(=O)(=O)NC(=O)c1ccc(Cn2cccn2)c(C)c1` [Compound 20, 4-((1H-pyrazol-1-yl)methyl)-N-((5-(tert-butyl)-2-methoxyphenyl)sulfonyl)-3-methylbenzamide] and `CCOc1cc(C(=O)NS(=O)(=O)c2cc(C(C)(C)C)ccc2OC)ccc1Cn1cccn1` [Compound 21, 4-((1H-pyrazol-1-yl)methyl)-N-((5-(tert-butyl)-2-methoxyphenyl)sulfonyl)-3-ethoxybenzamide] are within 1.5-fold of each other in IC50: 39 nM for the first, 28 nM for the second.

Going from `COc1cc(C(=O)NS(=O)(=O)c2ccccc2-c2ccccc2)ccc1Cn1cccn1` [Compound 22, 4-((1H-pyrazol-1-yl)methyl)-N-([1,1′-biphenyl]-2-ylsulfonyl)-3-methoxybenzamide] to `COc1cc(C(=O)NS(=O)(=O)c2cccc(O)c2)ccc1Cn1cccn1` [Compound 23, 4-((1H-pyrazol-1-yl)methyl)-N-((3-hydroxyphenyl)sulfonyl)-3-methoxybenzamide], the IC50 falls from 49 nM to 32 nM (1.5-fold).

`COc1cc(C(=O)NS(=O)(=O)c2cc(Br)ccc2OC)ccc1Cn1cccn1` [Compound 24, 4-((1H-pyrazol-1-yl)methyl)-N-((5-bromo-2-methoxyphenyl)sulfonyl)-3-methoxybenzamide] and `COc1ccc(C(C)(C)C)cc1S(=O)(=O)NC(=O)c1ccc(Cn2cccn2)c(C(F)(F)F)c1` [Compound 25, 4-((1H-pyrazol-1-yl)methyl)-N-((5-(tert-butyl)-2-methoxyphenyl)sulfonyl)-3-(trifluoromethyl)benzamide] are within 1.5-fold of each other in IC50: 12 nM for the first, 10 nM for the second.

Going from `COc1cc(C(=O)NS(=O)(=O)c2ccccc2OC)ccc1Cn1cccn1` [Compound 26, N-(2-methoxyphenyl)sulfonyl-3-methoxy-4-(pyrazol-1-ylmethyl)benzamide] to `COc1cc(C(=O)NS(=O)(=O)c2cc3c(cc2OC)CCC3)ccc1Cn1cccn1` [Compound 27, 4-((1H-pyrazol-1-yl)methyl)-3-methoxy-N-((6-methoxy-2,3-dihydro-1H-inden-5-yl)sulfonyl)benzamide], the IC50 falls from 25 nM to 12 nM (2.1-fold). The second is the more potent here.

Going from `COc1cccc(OC)c1S(=O)(=O)NC(=O)c1ccc(Cn2cccn2)c(C2CC2)c1` [Compound 28, 4-((1H-pyrazol-1-yl)methyl)-3-cyclopropyl-N-((2,6-dimethoxyphenyl)sulfonyl)benzamide] to `COc1cc(C(=O)NS(=O)(=O)c2cc(C3CC3)ccc2OC)ccc1Cn1cccn1` [Compound 29, 4-((1H-pyrazol-1-yl)methyl)-N-((5-cyclopropyl-2-methoxyphenyl)sulfonyl)-3-methoxybenzamide], the IC50 falls from 19 nM to 10 nM (1.9-fold).
